Laboratory results reported in article PMC8318231, “Rate-of-Kill (RoK) assays to triage large compound sets for Chagas disease drug discovery: Application to GSK Chagas Box” (PLoS Neglected Tropical Diseases, 2021).

Test system: T. cruzi intracellular amastigotes in H9c2 cells
Test: Rate-of-Kill (RoK) high-content imaging assay, amastigotes per cell (AM/CELL) and curve descriptors
Format: cell-based, Trypanosoma cruzi
Parameters: key to ME_24h / ME_48h / ME_72h: % reduction in parasite burden (cidal response); t50pct_MCC50 / t50pct_Cmax: unit not given here
Details: for ME_24h: 24h; for ME_48h: 48h; for ME_72h: 72h; for t50%_Cmax / tlag_Cmax / t50pct_Cmax: at Cmax; for ME_24h (%): maximum effect at 24 h; for ME_24h (%) / ME_48h (%) / ME_72h (%): RoK assay; for ME_48h (%): maximum effect at 48 h; for ME_72h (%): maximum effect at 72 h; for ME 24h (maximum effect at 24 hours, intracellular amastigotes): maximum percentage of parasite burden reduction reached by any concentration
Experimental: For this high-content intracellular imaging assay, H9c2 cells were seeded in 225 cm^2 T- FLASK in DMEM with 10% FBS for 4 h to allow attachment. T. cruzi trypomastigotes, collected at days 5 to 8 after infection from LLC-MK2 parasite infected cultures, were allowed to swim out for 4 h at 37°C from a centrifuged pellet (1,600 x g / 10 min). Trypomastigotes were then collected and counted in a CASY Cell Counter using the 60 μm capillary. Trypomastigotes, in supplemented DMEM, were added to H9c2 cultures in a multiplicity of infection (MOI) of 8 and incubated for 18 h. Cells were washed once with PBS before incubation of the infected H9c2 monolayer with trypsin (Life-Technologies) to detach cells from the flask. Cells were counted in a CASY Cell Counter, using the 150 μm capillary, and their density set at 5 x 10^4 cells/mL in supplemented DMEM. Infected H9c2 were dispensed into 384-well plates at 50 μL per well using a Multidrop Combi dispenser. Control wells used to determine a 100% parasitic growth (full 6th column of each plate) were left untreated, whereas not infected cells were added in the control wells used as 0% parasite growth (or 100% parasite growth inhibition; full 18th column of each plate). The four plates corresponding to each RoK assay were predispensed for the same mother plate. […] Cultures were then fixed and stained with 50 μL per well of a PBS solution containing 4% formaldehyde and 2 μM DRAQ5 DNA dye (BioStatus, UK). Then plates were read in a PerkinElmer Opera Phenix using a 20x objective, 3 fields per well. DRAQ5 signal was detected using 640 nm excitation laser and a 690/50 nm emission detection filter. Automated image analysis was performed with a script developed on Acapella High Content Imaging and Analysis Software (PerkinElmer). Two outputs were provided for each sample well: (1) number of host cells nuclei to determine drug-related cytotoxicity (aka H9c2) and (2) number of amastigotes per cell as infection level measurement (aka AM/CELL). Each output is plotted as a time course for each compound at every concentration. This assay was adapted from Alonso-Padilla et al. and Peña et al..
To identify and classify the different compounds, the number of amastigotes per cell (AM/CELL) raw data obtained in rate of kill assay are normalised using the average of C1 (infected cells) at time 4 hours as 0% effect and the average of C2 (non-infected cells) for each time as 100% effect, according to the following Eq 1: %CIDALRESPONSE=100*[Avg_C14h-RawData]/[Avg_C14h-Avg_C2] (1)
• ME (Maximum Effect) is the maximum percentage of parasite burden reduction reached by any compound concentration. Compounds that decrease the initial parasite load will show a positive value of ME, whereas compounds that allow the progression of infection will render a negative ME value. […] It is calculated for the MCC50 (t50%_MCC50) and for the maximum concentration (t50%_Cmax). […] The value of this parameter is not either interpolated or extrapolated, and it refers to the first experimental time-course point at which a 50% of effect is reached or exceeded. • tlag defines the time elapsed for one particular concentration to reduce parasite burden between two consecutive points at any moment of the time course. It is calculated for the MCC50 (tlag_MCC50) and for the maximum concentration (tlag_Cmax). The value of this parameter is not either interpolated or extrapolated, and it refers to the first experimental time-course point of a positive slope in the normalised plot (i.e. %Cidal_Response). • Cmin_Tox (Minimal CytoToxic Concentration) is the lowest compound concentration that is reducing the number of host mammalian cells below 50% of initial cell density. Cytotoxic compounds may mislead a bona fide antiparasitic action.

Structure (SMILES)	ME_24h (figure 5)	ME_48h (figure 5)	ME_72h (figure 5)	MCC50 (RoK curve descriptor) [µM]	MCCE (RoK curve descriptor) [µM]	AM/CELL NORM (Time 4, sheet figure 4 A)	AM/CELL NORM (Time 24, sheet figure 4 A)	AM/CELL NORM (Time 48, sheet figure 4 A)	AM/CELL NORM (Time 72, sheet figure 4 A)	t50%_Cmax [h]	tlag_Cmax [h]	t50pct_Cmax (figure 5)	tlag_Cmax (figure 5)	t50pct_MCC50 (at MCC50, figure 5)	tlag_MCC50 (at MCC50, figure 5)	MCCE (figure 5)	ME_24h (%)	ME_48h (%)	ME_72h (%)	ME 24h (maximum effect at 24 hours, intracellular amastigotes) [%]	other results
Cc1cc(N(C)C)nc(Nc2ccccc2C)n1 [TCMDC-143109]	47.5747	78.0835	82.1728	5.6	1.9	2.321	36.6087	78.0835	76.3621	48.0	4.0	48	4	48	4	1.852	47.6	78.1	82.2	47.5747	t50%_MCC50 (at MCC50): 48.0 h; tlag_MCC50 (at MCC50): 4.0 h; MCC50 (figure 5, in µM): 5.556
CCCN(Cc1ccc(OC)c(OC)c1)Cc1cc(=O)c2c(C)cc(C)cc2[nH]1 [TCMDC-143331]	53.5839	70.4309	85.455	27.8	1.9	14.9494	52.9561	75.3164	72.8804	24.0	4.0	24	4	48	4	1.852	53.6	70.4	85.5	54.2116	ME (maximum effect) in RoK assay (in words): high values in ME at the different times; tlag (in words): short tlag; t50%_MCC50 (at MCC50): 48.0 h; tlag_MCC50 (at MCC50): 4.0 h; MCC50 (figure 5, in µM): 27.7778
O[C@H]1CC[C@H](Nc2nccc(-c3sc(C4CCOCC4)nc3-c3ccc(F)c(F)c3)n2)CC1 [TCMDC-143387]	-7.952	-1.621	23.2073	–	0.07	–	–	–	–	–	24.0	72	24	72	72	0.06859	-8.0	-1.6	23.2	-7.952	AM/CELL NORM (Time 4, figure 4 A): 2.207; AM/CELL NORM (Time 24, figure 4 A): -7.952; AM/CELL NORM (Time 48, figure 4 A): -3.462; AM/CELL NORM (Time 72, figure 4 A): 23.2073; MCC50 (figure 5): 50 µM
COc1cc(C(C)C)c(S(C)(=O)=O)cc1C(=O)N1CCN(c2ccccc2Cl)CC1 [TCMDC-143097]	-95.8223	-1.8208	22.9753	–	1.9	-12.0353	-95.8223	-56.5005	8.079	–	24.0	72	24	72	72	1.852	-95.8	-1.8	23.0	-95.8223	MCC50 (figure 5): 50 µM
CN(C)Cc1ccc(N2CCC(NS(=O)(=O)c3ccc(Cl)cc3)CC2)cc1 [TCMDC-143623]	-87.7558	-504.665	-765.031	1.9	1.0	–	–	–	–	60.0	38.0	60	38	72	48	1.029	-87.8	-504.7	-765.0	25.2228	ME (maximum effect) in RoK assay (in words): positive ME throughout all times; cidality in the RoK assay (in words): cidal; tlag (in words): short tlag times; AM/CELL NORM (Time 4, figure 4 A): -0.7307; AM/CELL NORM (Time 24, figure 4 A): -44.6697; AM/CELL NORM (Time 48, figure 4 A): 60.0074; AM/CELL NORM (Time 72, figure 4 A): 92.6225; t50%_MCC50 (at MCC50): 72.0 h; tlag_MCC50 (at MCC50): 24.0 h; MCC50 (figure 5, in µM): 25.9259
CC(C)Nc1nccc(-c2c(-c3ccc(F)cc3)ncn2C2CCOCC2)n1 [TCMDC-143379]	-22.482	-3.3846	36.7081	–	0.2	-6.859	-37.6965	-3.3846	36.7081	–	24.0	72	24	72	72	0.2058	-22.5	-3.4	36.7	-22.482	MCC50 (figure 5): 50 µM
O=C(O)/C=C\C(=O)O.O=C(c1ccc(OCCCc2cnc[nH]2)cc1)C1CC1 [TCMDC-143632]	-9.2427	8.208	46.1088	–	5.6	10.5519	-53.2211	-4.213	38.8877	–	24.0	72	24	72	72	5.556	-9.2	8.2	46.1	-9.2427	MCC50 (figure 5): 50 µM
COc1ccc(S(=O)(=O)NCc2ccc(-c3ccc(CN(C)CCO)cc3)cc2)cc1.O=C(O)C(F)(F)F [TCMDC-143549]	31.0393	40.4277	76.5332	16.7	5.6	-7.714	31.0393	40.4277	76.5332	72.0	4.0	72	4	72	24	5.556	31.0	40.4	76.5	31.0393	t50%_MCC50 (at MCC50): 72.0 h; tlag_MCC50 (at MCC50): 24.0 h; MCC50 (figure 5, in µM): 16.6667
